Measured values reported in EP4273147A1, “SUBSTITUTED SPIROLACTAMS, SALTS THEREOF AND THEIR USE AS HERBICIDALLY ACTIVE SUBSTANCES” (Bayer Aktiengesellschaft, priority 2022, dated 2023).

Tests used:
[1] = system: SETVI; test: Herbicidal pre-emergence action, section C (Table C10); type: in vivo, Setaria viridis; details: application rate 80 g/ha; visual grading after ca. 3 weeks
[2] = system: MATIN; test: Herbicidal pre-emergence action, section C (Table C8); type: in vivo, Matricaria inodora; details: application rate 320 g/ha; visual grading after ca. 3 weeks
[3] = system: LOLRI; test: Herbicidal pre-emergence action, section C (Table C7); type: in vivo, Lolium rigidum; details: application rate 320 g/ha; visual grading after ca. 3 weeks
[4] = system: ALOMY; test: Herbicidal post-emergence action, section E (Table E2); type: in vivo, Alopecurus myosuroides; details: assessed visually after ca. 3 weeks
From the text: (§1) 2 to 3 weeks after sowing, the test plants were sprayed in the single-leaf stage.

[5] = system: DIGSA; test: Herbicidal pre-emergence action, section C (Table C5); type: in vivo, Digitaria sanguinalis; details: application rate 80 g/ha; visual grading after ca. 3 weeks
[6] = system: POLCO; test: Herbicidal pre-emergence action, section C (Table C9); type: in vivo, Polygonum convolvulus; details: visual grading after ca. 3 weeks
[7] = system: VIOTR; test: Herbicidal pre-emergence action, section C (Table C12); type: in vivo, Viola tricolor; details: application rate 80 g/ha; visual grading after ca. 3 weeks
[8] = system: BRSNW; test: Post-emergence effects on crop plants (Table F5); type: in vivo, Brassica napus; details: application rate 320 g/ha, crop plant BRSNW
From the text: as §1

[9] = system: VERPE; test: Herbicidal pre-emergence action, section C (Table C11); type: in vivo, Veronica persica; details: application rate 320 g/ha; visual grading after ca. 3 weeks
[10] = system: ZEAMX; test: Post-emergence effects on crop plants (Table F1); type: in vivo, Zea mays; details: crop plant ZEAMX
From the text: as §1

[11] = system: AVEFA; test: Herbicidal pre-emergence action, section C (Table C4); type: in vivo, Avena fatua; details: application rate 320 g/ha; visual grading after ca. 3 weeks
From the text: (§4) Seeds of mono- and dicotyledonous weed plants and crop plants were sown, in plastic or organic planting pots, in sandy loam and covered with soil. The compounds according to the invention, formulated in the form of wettable powders (WP) or as emulsifiable concentrates (EC), were applied to the surface of the covering soil as aqueous suspension or emulsion, with the addition of 0.5% of an additive, at an application rate of 600 1 of water/ha (converted). Following treatment, the pots were placed in a greenhouse and kept under optimum growth conditions for the test plants.

[12] = system: ECHCG; test: Herbicidal pre-emergence action, section C (Table C6); type: in vivo, Echinochloa crus-galli; details: application rate 80 g/ha; visual grading after ca. 3 weeks
[13] = system: GLXMA; test: Post-emergence effects on crop plants (Table F4); type: in vivo, Glycine max; details: application rate 80 g/ha, crop plant GLXMA
From the text: as §1

[14] = system: DIGSA; test: Herbicidal post-emergence action, section E (Table E4); type: in vivo, Digitaria sanguinalis; details: application rate 320 g/ha; assessed visually after ca. 3 weeks
From the text: as §1

[15] = system: TRZAS; test: Post-emergence effects on crop plants (Table F2); type: in vivo, Triticum aestivum; details: application rate 80 g/ha, crop plant TRZAS
From the text: as §1

[16] = system: AMARE; test: Herbicidal pre-emergence action, section C (Table C3); type: in vivo, Amaranthus retroflexus; details: application rate 320 g/ha; visual grading after ca. 3 weeks
From the text: as §4

[17] = system: VERPE; test: Herbicidal post-emergence action, section E (Table E9); type: in vivo, Veronica persica; details: application rate 320 g/ha; assessed visually after ca. 3 weeks
From the text: as §1

[18] = system: ORYZA; test: Post-emergence effects on crop plants (Table F3); type: in vivo, Oryza sativa; details: application rate 80 g/ha, crop plant ORYZA
From the text: as §1

[19] = system: ALOMY; test: Herbicidal pre-emergence action, section C (Table C2); type: in vivo, Alopecurus myosuroides; details: application rate 80 g/ha; visual grading after ca. 3 weeks
[20] = system: ECHCG; test: Herbicidal post-emergence action, section E (Table E5); type: in vivo, Echinochloa crus-galli; details: assessed visually after ca. 3 weeks
From the text: as §1

[21] = system: LOLRI; test: Herbicidal post-emergence action (Table B5); type: in vivo, Lolium rigidum; details: application rate 320 g/ha; rated visually after about 3 weeks
Procedure, shortened: (§2)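 Visual rating of activity versus untreated plants about 3 weeks after treatment: 0% means no difference from controls, 100% means complete kill. Test weeds were raised from seed in sandy loam under controlled greenhouse conditions and sprayed at the one-leaf stage.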

[22] = system: MATIN; test: Herbicidal pre-emergence action (Table A4); type: in vivo, Matricaria inodora; details: application rate 320 g/ha; visual grading after ca. 3 weeks
Procedure, shortened: (§3)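 Double sowing per pot (1 monocot + 1 dicot weed species), sandy loam substrate, seeds covered with soil.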

[23] = system: MATIN; test: Herbicidal post-emergence action (Table B6); type: in vivo, Matricaria inodora; details: application rate 320 g/ha; rated visually after about 3 weeks
Procedure, shortened: as §2

[24] = system: AMARE; test: Herbicidal pre-emergence action (Table A8); type: in vivo, Amaranthus retroflexus; details: application rate 1280 g/ha; visual grading after ca. 3 weeks vs untreated controls (100% = plants have died off, 0% = as control plants)
Procedure, shortened: as §3

[25] = system: ABUTH; test: Herbicidal post-emergence action, section E (Table E1); type: in vivo, Abutilon theophrasti; details: application rate 320 g/ha; assessed visually after ca. 3 weeks
From the text: as §1

[26] = system: GLXMA; test: Pre-emergence effects on crop plants (Table D4); type: in vivo, Glycine max; details: crop plant; application rate 80 g/ha; visual grading after ca. 3 weeks
From the text: Seeds of mono- and dicotyledonous weed plants and crop plants were sown, in plastic or organic planting pots, in sandy loam and covered with soil. The compounds according to the invention, formulated in the form of wettable powders (WP) or as emulsifiable concentrates (EC), were applied to the surface of the covering soil as aqueous suspension or emulsion, with the addition of 0.5% of an additive, at an application rate of 600 1 of water/ha (converted).
Following treatment, the pots were placed in a greenhouse and kept under optimum growth conditions for the test plants.

[27] = system: ALOMY; test: Herbicidal post-emergence action (Table B2); type: in vivo, Alopecurus myosuroides; details: application rate 320 g/ha; rated visually after about 3 weeks
Procedure, shortened: as §2

[28] = system: LOLRI; test: Herbicidal post-emergence action, section E (Table E6); type: in vivo, Lolium rigidum; details: application rate 320 g/ha; assessed visually after ca. 3 weeks
From the text: as §1

[29] = system: POAAN; test: Herbicidal post-emergence action (Table B7); type: in vivo, Poa annua; details: application rate 320 g/ha
Procedure, shortened: as §2

[30] = system: SETVI; test: Herbicidal post-emergence action, section E (Table E8); type: in vivo, Setaria viridis; details: application rate 320 g/ha; assessed visually after ca. 3 weeks
From the text: as §1

[31] = system: POAAN; test: Herbicidal pre-emergence action (Table A7); type: in vivo, Poa annua; details: application rate 320 g/ha; visual grading after ca. 3 weeks
Procedure, shortened: as §3

[32] = system: VERPE; test: Herbicidal post-emergence action (Table B10); type: in vivo, Veronica persica; details: application rate 320 g/ha
Procedure, shortened: as §2

[33] = system: DIGSA; test: Herbicidal post-emergence action (Table B12); type: in vivo, Digitaria sanguinalis; details: application rate 320 g/ha
Procedure, shortened: as §2

[34] = system: VERPE; test: Herbicidal pre-emergence action (Table A11); type: in vivo, Veronica persica; details: application rate 320 g/ha; visual grading after ca. 3 weeks
Procedure, shortened: as §3

[35] = system: DIGSA; test: Herbicidal pre-emergence action (Table A12); type: in vivo, Digitaria sanguinalis; details: application rate 320 g/ha; visual grading after ca. 3 weeks
Procedure, shortened: as §3

[36] = system: ALOMY; test: Herbicidal pre-emergence action (Table A9); type: in vivo, Alopecurus myosuroides; details: application rate 320 g/ha; visual grading after ca. 3 weeks
Procedure, shortened: as §3

[37] = system: ECHCG; test: Herbicidal post-emergence action (Table B3); type: in vivo, Echinochloa crus-galli; details: application rate 320 g/ha; rated visually after about 3 weeks
Procedure, shortened: as §2

[38] = system: ABUTH; test: Herbicidal pre-emergence action, section C (Table C1); type: in vivo, Abutilon theophrasti; details: application rate 80 g/ha; visual grading after ca. 3 weeks
From the text: as §4

[39] = system: SETVI; test: Herbicidal post-emergence action (Table B8); type: in vivo, Setaria viridis; details: application rate 320 g/ha
Procedure, shortened: as §2

[40] = system: VIOTR; test: Herbicidal post-emergence action, section E (Table E10); type: in vivo, Viola tricolor; details: application rate 320 g/ha; assessed visually after ca. 3 weeks
From the text: as §1

[41] = system: LOLRI; test: Herbicidal pre-emergence action (Table A3); type: in vivo, Lolium rigidum; details: application rate 320 g/ha; visual grading after ca. 3 weeks
Procedure, shortened: as §3

[42] = system: KCHSC; test: Herbicidal pre-emergence action (Table A10); type: in vivo, Kochia scoparia; details: application rate 1280 g/ha; visual grading after ca. 3 weeks
Procedure, shortened: as §3

[43] = system: STEME; test: Herbicidal pre-emergence action (Table A6); type: in vivo, Stellaria media; details: application rate 320 g/ha; visual grading after ca. 3 weeks
Procedure, shortened: as §3

[44] = system: ABUTH; test: Herbicidal post-emergence action (Table B1); type: in vivo, Abutilon theophrasti; details: application rate 320 g/ha; treated at one-leaf stage; rated visually after about 3 weeks vs untreated controls (100% = plants have died, 0% = like control plants)
Procedure, shortened: as §2

[45] = system: ABUTH; test: Herbicidal pre-emergence action (Table A1); type: in vivo, Abutilon theophrasti; details: application rate 320 g/ha; visual grading after ca. 3 weeks vs untreated controls (100% = plants have died off, 0% = as control plants)
Procedure, shortened: as §3

[46] = system: SETVI; test: Herbicidal pre-emergence action (Table A5); type: in vivo, Setaria viridis; details: application rate 320 g/ha; visual grading after ca. 3 weeks
Procedure, shortened: as §3

[47] = system: ECHCG; test: Herbicidal pre-emergence action (Table A2); type: in vivo, Echinochloa crus-galli; details: application rate 320 g/ha; visual grading after ca. 3 weeks
Procedure, shortened: as §3

## O=C1N(Cc2c(F)cccc2F)CCCC12CCCN(Cc1c(F)cccc1F)C2=O (single isomer, unassigned; (-)) [I-009, (-)-2,8-bis[(2,6-difluorophenyl)methyl]-2,8-diazaspiro[5.5]undecane-1,7-dione]
[1]
  pre-emergence activity against SETVI: 100%
[2]
  pre-emergence activity against MATIN: 90%
[3]
  pre-emergence activity against LOLRI: 100%
[4]; application rate 80 g/ha
  post-emergence activity against ALOMY: 80%
[5]
  pre-emergence activity against DIGSA: 100%
[6]; application rate 80 g/ha
  pre-emergence activity against POLCO: 80%
[7]
  pre-emergence activity against VIOTR: 80%
[8]
  post-emergence activity against BRSNW: 20%
[9]
  pre-emergence activity against VERPE: 90%
[10]; application rate 320 g/ha
  post-emergence activity against ZEAMX: 20%
[11]
  pre-emergence activity against AVEFA: 90%
[12]
  pre-emergence activity against ECHCG: 100%
[13]
  post-emergence activity against GLXMA: 20%
[14]
  post-emergence activity against DIGSA: 90%
[15]
  post-emergence activity against TRZAS: 10%
[16]
  pre-emergence activity against AMARE: 90%
[17]
  post-emergence activity against VERPE: 80%
[18]
  post-emergence activity against ORYZA: 10%
[19]
  pre-emergence activity against ALOMY: 100%
[20]; application rate 320 g/ha
  post-emergence activity against ECHCG: 90%

## O=C1N(Cc2ccccc2F)CCCC12CCCN(Cc1ccccc1F)C2=O (single isomer, unassigned) [I-001]
[1]
  pre-emergence activity against SETVI: 100%
[21]
  post-emergence activity against LOLRI: 90%
[22]
  pre-emergence activity against MATIN: 90%
[23]
  post-emergence activity against MATIN: 90%
[24]
  pre-emergence activity against AMARE: 90%
[25]
  post-emergence activity against ABUTH: 80%
[2]
  pre-emergence activity against MATIN: 100%
[26]
  pre-emergence activity against GLXMA: 0%
[27]
  post-emergence activity against ALOMY: 90%
[3]
  pre-emergence activity against LOLRI: 100%
[4]; application rate 320 g/ha
  post-emergence activity against ALOMY: 90%
[5]
  pre-emergence activity against DIGSA: 100%
[6]; application rate 320 g/ha
  pre-emergence activity against POLCO: 80%
[7]
  pre-emergence activity against VIOTR: 90%
[28]
  post-emergence activity against LOLRI: 90%
[29]
  post-emergence activity against POAAN: 90%
[30]
  post-emergence activity against SETVI: 100%
[9]
  pre-emergence activity against VERPE: 90%
[31]
  pre-emergence activity against POAAN: 100%
[32]
  post-emergence activity against VERPE: 90%
[10]; application rate 80 g/ha
  post-emergence activity against ZEAMX: 0%
[33]
  post-emergence activity against DIGSA: 90%
[34]
  pre-emergence activity against VERPE: 90%
[35]
  pre-emergence activity against DIGSA: 100%
[36]
  pre-emergence activity against ALOMY: 90%
[37]
  post-emergence activity against ECHCG: 100%
[12]
  pre-emergence activity against ECHCG: 100%
[38]
  pre-emergence activity against ABUTH: 80%
[39]
  post-emergence activity against SETVI: 90%
[14]
  post-emergence activity against DIGSA: 80%
[15]
  post-emergence activity against TRZAS: 0%
[40]
  post-emergence activity against VIOTR: 80%
[41]
  pre-emergence activity against LOLRI: 100%
[42]
  pre-emergence activity against KCHSC: 90%
[17]
  post-emergence activity against VERPE: 90%
[18]
  post-emergence activity against ORYZA: 0%
[43]
  pre-emergence activity against STEME: 90%
[44]
  post-emergence activity against ABUTH: 90%
[19]
  pre-emergence activity against ALOMY: 100%
[20]; application rate 80 g/ha
  post-emergence activity against ECHCG: 90%
[45]
  pre-emergence activity against ABUTH: 90%
[46]
  pre-emergence activity against SETVI: 100%
[47]
  pre-emergence activity against ECHCG: 100%
